Measured values as given in US5698391A, “Methods for synthetic unrandomization of oligomer fragments” (ISIS Pharmaceuticals, Inc., priority 1994, dated 1997).

Tested on: HIV gag-pol stem loop
Test: Gel shift, oligonucleotide set binding to HIV gag-pol triple strand
Conditions: pH 5, 100 mM NaCl, 2 mM MgCl2, 1 mM spermidine
Description: Binding to double stranded DNA or RNA is possible by formation of a three stranded complex, with the incoming third strand binding in the major groove of the duplex RNA or DNA. FIG. 6 illustrates a double stranded RNA structure from HIV known as the gag-pol stem loop (Vickers and Ecker, Nucleic Acids Research). One of the limitations in the design of triple strand interactions is the need to have a long stretch of homopurines as a target. The 3' (right) side of the gag-pol stem loop is homopurine except for a pair of cytosines near the bottom of the stem. To determine the best oligonucleotide to bind to the gag-pol stem loop, a group of RNA oligonucleotide sets was designed to bind to the purine-rich strand of the gag-pol stem-loop by Hoogstein base pairing and prepared in accordance with Examples 2 and 6. Binding to the gag-pol stemloop was measured by gel shift analysis as previously described in Example 8 with the following modifications: the radiolabeled gag-pol RNA was incubated with the oligonucleotide in 100 mM NaCl, 25 mM TRIS acetate (pH 5), 2 mM MgCl2, 1 mM spermidine. The gel was 15% acrylamide with 50 mM NaCl and 2 mM MgCl2 added to the running buffer.

Substance	Kd
A2: RNA oligonucleotide, SEQ ID NO: 10 (CCCUUCCCAUC; RNA, backbone not given here) [Set A2]	10 µM
B2: RNA oligonucleotide, SEQ ID NO: 11 (CCCUUCCCGUC; RNA, backbone not given here) [Set B2]	10 µM
C2: RNA oligonucleotide, SEQ ID NO: 12 (CCCUUCCCCUC; RNA, backbone not given here) [Set C2]	1 µM
D2: RNA oligonucleotide, SEQ ID NO: 13 (CCCUUCCCUUC; RNA, backbone not given here) [Set D2]	10 µM
